Values quoted from earlier work as cited in patent US20090004173A1, “Diagnosis and Treatment of Drug Resistant Leukemia” (priority 2004, published 2009).
Like-named read-outs stand apart in the source and are kept apart here.

Experiments:
[1] = tested on: non-leukemic cell lines; settings: Niitsu et al. (2000)
[2] = tested on: leukemia cells; settings: for LC50 values for classification of ALL: Resistant / LC50 values for classification of ALL: Sensitive: LC50 by MTT, cut-off previously associated with treatment outcome
[3] = classification cut-off: cell is resistant if LC-50 is equal to or greater than the value

Molecule	sensitization to the cytotoxicity of daunorubicin and doxorubicin [1]	LC50 values for classification of ALL: Resistant [2]	LC50 values for classification of ALL: Sensitive [2]	LC-50 values for classifying leukemia cells as drug-resistant [2, 3]	LC-50 values for classifying leukemia cells as drug-resistant [2]
CCCC(=O)OCOC(=O)C(C)(C)C [AN-9]	sensitize non-leukemic cell lines to the cytotoxicity of daunorubicin and doxorubicin				
COc1cccc2c1C(=O)c1c(O)c3c(c(O)c1C2=O)C[C@@](O)(C(C)=O)C[C@@H]3O[C@H]1C[C@H](N)[C@H](O)[C@H](C)O1 [Daunorubicin, daunorubicin]		≧0.114 μg/ml	≦0.075 μg/ml	≧0.114 μg/ml	
C[C@]12C=CC(=O)C=C1CC[C@@H]1[C@@H]2[C@@H](O)C[C@@]2(C)[C@H]1CC[C@]2(O)C(=O)CO [Prednisolone, prednisolone]		≧150 μg/ml	≦0.100 μg/ml	≧150 μg/ml	
CC[C@]1(O)C[C@H]2CN(CCc3c([nH]c4ccccc34)[C@@](C(=O)OC)(c3cc4c(cc3OC)N(C=O)[C@H]3[C@@](O)(C(=O)OC)[C@H](OC(C)=O)[C@]5(CC)C=CCN6CC[C@]43[C@@H]65)C2)C1 [Vincristine, vincristine]		≧1.758 μg/ml	≦0.391 μg/ml	≧1.758 μg/ml	
L-asparaginase (protein, UniProt P00805 23-348, looked up) L-asparaginase 2: LPNITILATGGTIAGGGDSATKSNYTVGKVGVENLVNAVPQLKDIANVKGEQVVNIGSQDMNDNVWLTLAKKINTDCDKTDGFVITHGTDTMEETAYFLDLTVKCDKPVVMVGAMRPSTSMSADGPFNLYNAVVTAADKASANRGVLVVMNDTVLDGRDVTKTNTTDVATFKSVNYGPLGYIHNGKIDYQRTPARKHTSDTPFDVSKLNELPKVGIVYNYANASDLPAKALVDAGYDGIVSAGVGNGNLYKSVFDTLATAAKTGTAVVRSSRVPTGATTQDAEVDDAKYGFVASGTLNPQKARVLLQLALTQTKDPQQIQQIFNQY		≧0.912 IU/ml	≦0.033 IU/ml		≧0.912 IU/ml
